In PubChem BioAssay AID248 (DTP/NCI, 2004):
“And” between values parts separate entries of the source, which are not always exact repeats. Equal entries are not always repeated. Toxic doses and inconclusive results are not listed.

Test system: L1210 leukemia ip in BDF1 mice, survival T/C
Experiment: NCI In Vivo Anticancer Drug Screen. Data for tumor model L1210 Leukemia (intraperitoneal) in B6D2F1 (BDF1) mice
Details: higher = longer survival
Summary of the method: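 Mice bearing the transplanted tumor received compound or vehicle. Survival of the treated group was divided by that of the vehicle-treated control group to give the ratio.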

[1] = endpoint: mean survival time, dose: 100.0 mg/kg/injection, schedule: Q04DX003 (ip), vehicle: Klucel (hydroxypropylcellulose) (HPC)
[2] = endpoint: mean survival time, dose: 200.0 mg/kg/injection, schedule: Q04DX003 (ip), vehicle: Klucel (hydroxypropylcellulose) (HPC)
[3] = endpoint: mean survival time, dose: 400.0 mg/kg/injection, schedule: Q04DX003 (ip), vehicle: Klucel (hydroxypropylcellulose) (HPC)
[4] = endpoint: mean survival time, dose: 100.0 mg/kg/injection, schedule: Q01DX001 (ip), vehicle: saline
[5] = endpoint: mean survival time, dose: 200.0 mg/kg/injection, schedule: Q01DX001 (ip), vehicle: saline
[6] = endpoint: mean survival time, dose: 400.0 mg/kg/injection, schedule: Q01DX001 (ip), vehicle: saline
[7] = endpoint: mean survival time, dose: 12.5 mg/kg/injection, schedule: Q01DX009 (ip), vehicle: saline
[8] = endpoint: mean survival time, dose: 12.5 mg/kg/injection, schedule: Q04DX003 (ip), vehicle: saline
[9] = endpoint: mean survival time, dose: 25.0 mg/kg/injection, schedule: Q01DX009 (ip), vehicle: saline
[10] = endpoint: mean survival time, dose: 25.0 mg/kg/injection, schedule: Q04DX003 (ip), vehicle: saline
[11] = endpoint: mean survival time, dose: 50.0 mg/kg/injection, schedule: Q04DX003 (ip), vehicle: saline
[12] = endpoint: mean survival time, dose: 100.0 mg/kg/injection, schedule: Q01DX009 (ip), vehicle: saline
[13] = endpoint: mean survival time, dose: 100.0 mg/kg/injection, schedule: Q04DX003 (ip), vehicle: saline
[14] = endpoint: mean survival time, dose: 200.0 mg/kg/injection, schedule: Q01DX009 (ip), vehicle: saline
[15] = endpoint: mean survival time, dose: 200.0 mg/kg/injection, schedule: Q04DX003 (ip), vehicle: saline
[16] = endpoint: mean survival time, dose: 400.0 mg/kg/injection, schedule: Q01DX009 (ip), vehicle: saline
[17] = endpoint: mean survival time, dose: 400.0 mg/kg/injection, schedule: Q04DX003 (ip), vehicle: saline
[18] = endpoint: mean survival time, dose: 100.0 mg/kg/injection, schedule: Q04DX002 (ip), vehicle: Klucel (hydroxypropylcellulose) (HPC)
[19] = endpoint: mean survival time, dose: 200.0 mg/kg/injection, schedule: Q04DX002 (ip), vehicle: Klucel (hydroxypropylcellulose) (HPC)
[20] = endpoint: mean survival time, dose: 400.0 mg/kg/injection, schedule: Q04DX002 (ip), vehicle: Klucel (hydroxypropylcellulose) (HPC)
[21] = endpoint: mean survival time, dose: 50.0 mg/kg/injection, schedule: Q01DX001 (ip), vehicle: carboxymethylcellulose (CMC)
[22] = endpoint: mean survival time, dose: 100.0 mg/kg/injection, schedule: Q01DX001 (ip), vehicle: carboxymethylcellulose (CMC)
[23] = endpoint: mean survival time, dose: 200.0 mg/kg/injection, schedule: Q01DX001 (ip), vehicle: carboxymethylcellulose (CMC)

COC(=O)c1ccc(N=NN(C)C)cc1
T/C (endpoint: median survival time, dose: 65.0 mg/kg/injection, schedule: Q01DX001 (ip), vehicle: steriod suspending solution): 100 % of control | T/C (endpoint: median survival time, dose: 108.0 mg/kg/injection, schedule: Q01DX001 (ip), vehicle: steriod suspending solution): 110 % of control | T/C (endpoint: median survival time, dose: 108.0 mg/kg/injection, schedule: Q01DX009 (ip), vehicle: steriod suspending solution): 100 % of control | T/C (endpoint: median survival time, dose: 180.0 mg/kg/injection, schedule: Q01DX001 (ip), vehicle: steriod suspending solution): 110 % of control | T/C (endpoint: median survival time, dose: 180.0 mg/kg/injection, schedule: Q04DX003 (ip), vehicle: steriod suspending solution): 150 % of control

S=C(S)N1CCC(CC2CCN(C(=S)S)CC2)CC1
T/C (endpoint: mean survival time, dose: 100.0 mg/kg/injection, schedule: Q01DX009 (ip), vehicle: saline with Tween-80): 98 % of control | T/C (endpoint: mean survival time, dose: 100.0 mg/kg/injection, schedule: Q04DX003 (ip), vehicle: saline with Tween-80): 102 % of control | T/C (endpoint: mean survival time, dose: 200.0 mg/kg/injection, schedule: Q01DX009 (ip), vehicle: saline with Tween-80): 93 % of control | T/C (endpoint: mean survival time, dose: 200.0 mg/kg/injection, schedule: Q04DX003 (ip), vehicle: saline with Tween-80): 96 % of control | T/C (endpoint: mean survival time, dose: 400.0 mg/kg/injection, schedule: Q04DX003 (ip), vehicle: saline with Tween-80): 86 % of control

CCOC(=O)CNCc1ccc(C)cc1
T/C (endpoint: mean survival time, dose: 100.0 mg/kg/injection, schedule: Q01DX009 (ip), vehicle: water): 102 % of control | T/C (endpoint: mean survival time, dose: 100.0 mg/kg/injection, schedule: Q04DX003 (ip), vehicle: water): 93 % of control | T/C (endpoint: mean survival time, dose: 200.0 mg/kg/injection, schedule: Q01DX009 (ip), vehicle: water): 111 % of control | T/C (endpoint: mean survival time, dose: 200.0 mg/kg/injection, schedule: Q04DX003 (ip), vehicle: water): 93 % of control | T/C (endpoint: mean survival time, dose: 400.0 mg/kg/injection, schedule: Q01DX009 (ip), vehicle: water): 105 % of control | T/C (endpoint: mean survival time, dose: 400.0 mg/kg/injection, schedule: Q04DX003 (ip), vehicle: water): 97 % of control

O=C(CCc1cccnc1)Nc1ccccc1
T/C [1]: 102 % of control | T/C [2]: 100 % of control | T/C [3]: 94 % of control

O=C1C(Cl)=CC(=NS(=O)(=O)c2ccccc2)C=C1Cl
T/C (endpoint: mean survival time, dose: 6.25 mg/kg/injection, schedule: Q01DX009 (ip), vehicle: saline with Tween-80): 96 % of control | T/C (endpoint: mean survival time, dose: 12.5 mg/kg/injection, schedule: Q01DX009 (ip), vehicle: saline with Tween-80): 96 % of control

c1ccc2c(c1)NC(SSC1Nc3ccccc3S1)S2 (centres undefined)
T/C [4]: 94 % of control | T/C [5]: 88 % of control | T/C [6]: 94 % of control

CCc1ccc(NC(=S)NC(=O)c2ccccc2OC)cc1
T/C (endpoint: mean survival time, dose: 100.0 mg/kg/injection, schedule: Q01DX009 (ip), vehicle: other): 98 % of control | T/C (endpoint: mean survival time, dose: 200.0 mg/kg/injection, schedule: Q01DX009 (ip), vehicle: other): 103 % of control | T/C (endpoint: mean survival time, dose: 400.0 mg/kg/injection, schedule: Q01DX009 (ip), vehicle: other): 93 % of control

Nc1c(I)cc([N+](=O)[O-])cc1I
T/C [1]: 95 % of control | T/C [2]: 93 % of control | T/C [3]: 98 % of control

CCN(CC)CCC(=O)c1cccc2c1OC(C)(C)C2
T/C [7]: 100 % of control and 105 % of control | T/C [8]: 103 % of control | T/C [9]: 93 % of control and 100 % of control | T/C [10]: 97 % of control | T/C (endpoint: mean survival time, dose: 50.0 mg/kg/injection, schedule: Q01DX009 (ip), vehicle: saline): 93 % of control and 102 % of control | T/C [11]: 103 % of control

OCC(O)Cc1ccccc1 (centres undefined)
T/C [12]: 97 % of control | T/C [13]: 102 % of control | T/C [14]: 105 % of control | T/C [15]: 102 % of control | T/C [16]: 108 % of control | T/C [17]: 101 % of control

COc1ccc2c(OC)c3ccoc3nc2c1OC
T/C (endpoint: mean survival time, dose: 25.0 mg/kg/injection, schedule: Q01DX Z (ip), vehicle: carboxymethylcellulose (CMC)): 97 % of control | T/C (endpoint: mean survival time, dose: 50.0 mg/kg/injection, schedule: Q01DX Z (ip), vehicle: carboxymethylcellulose (CMC)): 100 % of control

COC(=O)N/N=C/c1ccc(Cl)cc1Cl
T/C (endpoint: mean survival time, dose: 6.25 mg/kg/injection, schedule: Q01DX009 (ip), vehicle: Klucel (hydroxypropylcellulose) (HPC)): 94 % of control | T/C (endpoint: mean survival time, dose: 12.5 mg/kg/injection, schedule: Q01DX009 (ip), vehicle: Klucel (hydroxypropylcellulose) (HPC)): 101 % of control | T/C (endpoint: mean survival time, dose: 25.0 mg/kg/injection, schedule: Q01DX009 (ip), vehicle: Klucel (hydroxypropylcellulose) (HPC)): 94 % of control and 92 % of control

CCOc1ccccc1NC(=O)C1CCCCC1C(=O)O (centres undefined)
T/C (endpoint: mean survival time, dose: 100.0 mg/kg/injection, schedule: Q04DX002 (ip), vehicle: saline): 96 % of control | T/C (endpoint: mean survival time, dose: 200.0 mg/kg/injection, schedule: Q04DX002 (ip), vehicle: saline): 112 % of control

Cc1ccc2c(c1C)-c1c(ccc(C)c1C)C(=O)C2=O
T/C (endpoint: mean survival time, dose: 50.0 mg/kg/injection, schedule: Q04DX002 (ip), vehicle: Klucel (hydroxypropylcellulose) (HPC)): 91 % of control | T/C [18]: 102 % of control and 113 % of control | T/C [19]: 94 % of control | T/C [20]: 94 % of control and 100 % of control

COc1ccccc1CN1CCCN(Cc2ccccc2OC)C1c1ccc(N(C)C)cc1
T/C (endpoint: mean survival time, dose: 50.0 mg/kg/injection, schedule: Q01DX001 (ip), vehicle: saline): 98 % of control | T/C [4]: 98 % of control | T/C [5]: 95 % of control | T/C [6]: 88 % of control

CC(C)CCCc1c[nH]c(=O)[nH]c1=O
T/C (endpoint: mean survival time, dose: 100.0 mg/kg/injection, schedule: Q01DX009 (ip), vehicle: Klucel (hydroxypropylcellulose) (HPC)): 105 % of control | T/C (endpoint: mean survival time, dose: 100.0 mg/kg/injection, schedule: Q04DX003 (ip), vehicle: other): 103 % of control | T/C (endpoint: mean survival time, dose: 200.0 mg/kg/injection, schedule: Q01DX009 (ip), vehicle: Klucel (hydroxypropylcellulose) (HPC)): 97 % of control | T/C (endpoint: mean survival time, dose: 200.0 mg/kg/injection, schedule: Q04DX003 (ip), vehicle: other): 101 % of control | T/C (endpoint: mean survival time, dose: 400.0 mg/kg/injection, schedule: Q01DX009 (ip), vehicle: Klucel (hydroxypropylcellulose) (HPC)): 97 % of control | T/C (endpoint: mean survival time, dose: 400.0 mg/kg/injection, schedule: Q04DX003 (ip), vehicle: other): 117 % of control

O=C1c2ccccc2C(=O)N1O
T/C [21]: 95 % of control | T/C [22]: 90 % of control | T/C [23]: 95 % of control

COC(=N)c1ccc(C)c(I)c1
T/C [18]: 91 % of control | T/C [19]: 98 % of control | T/C [20]: 94 % of control

O=C1C(Br)=C(C2CCCCC2)C(=O)c2ccccc21
T/C [21]: 97 % of control | T/C [22]: 116 % of control | T/C [23]: 103 % of control

COc1ccccc1NC(=O)c1cc2ccccc2cc1O
T/C [12]: 109 % of control | T/C [13]: 100 % of control | T/C [14]: 104 % of control | T/C [15]: 100 % of control | T/C [16]: 100 % of control | T/C [17]: 98 % of control

Cc1nc(Br)c2cnccn12
T/C [7]: 106 % of control | T/C [8]: 98 % of control | T/C [9]: 103 % of control | T/C [10]: 97 % of control | T/C [11]: 97 % of control

c1ccc(C2CN3CCSC3=N2)cc1 (centres undefined)
T/C (endpoint: mean survival time, dose: 0.78 mg/kg/injection, schedule: Q04DX003 (ip), vehicle: saline): 102 % of control | T/C (endpoint: mean survival time, dose: 1.56 mg/kg/injection, schedule: Q01DX009 (ip), vehicle: saline): 97 % of control | T/C (endpoint: mean survival time, dose: 1.56 mg/kg/injection, schedule: Q04DX003 (ip), vehicle: saline): 100 % of control | T/C (endpoint: mean survival time, dose: 3.12 mg/kg/injection, schedule: Q01DX009 (ip), vehicle: saline): 100 % of control | T/C (endpoint: mean survival time, dose: 3.12 mg/kg/injection, schedule: Q04DX003 (ip), vehicle: saline): 98 % of control | T/C (endpoint: mean survival time, dose: 6.25 mg/kg/injection, schedule: Q01DX009 (ip), vehicle: saline): 102 % of control | T/C (endpoint: mean survival time, dose: 6.25 mg/kg/injection, schedule: Q04DX003 (ip), vehicle: saline): 104 % of control | T/C [7]: 94 % of control | T/C [8]: 107 % of control | T/C [9]: 105 % of control | T/C [10]: 114 % of control
